# From patent publication US20140234868A1, “USE FOR GLYCOLIPOPROTEIN GINTONIN, ISOLATED AND IDENTIFIED FROM GINSENG, AS A NATURAL MEDICAL-PLANT DERIVED LIGAND” (KONKUK UNIVERSITY INDUSTRIAL COOPERATION CORP., priority 2011, published 2014)
# B1: gintonin: ginseng-derived glycolipoprotein; structural protein of ginseng major latex-like protein (MLP151) and ribonuclease-like storage proteins; crude gintonin used in tests (protein)
# chain 1: MGLTGKLICQTGIKSDGDVFHELFGTRPHHVPNITPANIQGCDLHEGEFGKVGSVVIWNYSIDGNAMIAKEEIVAIDEEDKSVTFKVVEGHLFEEFKSIVFSVHVDTKGEDNLVTWSIDYEKLNESVKDPTSYLDFLLSVTRDIEAHHLPK
# chain 2: RSDYPWAMFALRLQWPAGFCEVNNACDTKSLLNTFTIHGLYPYNAKGTPALYCDGTAFDVNSVSDFLAEMHLAWPSHETNTEDIQFWEHEWKKHGRCSEALLKQTDYFRTALAFRKAFDIVGLLNQEGIYPNNDLYRPKMIKEAIKKHLNAVPEIDFTKNENSEYVLTDINVCVNQQATRFVDCPTDDATDDYRLKFVRLPSKMKFADPRTNSII
# Test system: NMDA receptors (NR1 and NR2)
# Experiment: NMDA receptor activity in Xenopus oocytes, two-electrode voltage clamp
# Format: cell-based
# In short: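 Xenopus oocytes injected with NR1 and NR2 cDNA (100 ng/40 nl) and kept 4-5 days at 18 °C in ND96. Two-electrode voltage clamp at −60 mV in Mg2+-free ND96, pH 7.6. Currents evoked by […].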
Molecule,"effect on NMDA-induced inward current (Kil6425 10 μM, U73122 1 μM, 2-APB 100 μM, BAPTA 100 μM 3 h)","effect on gintonin-induced NMDA receptor activation (gintonin 1 μg/ml, Kil6425 10 μM, U73122, U73343 1 μM, 2-APB 100 μM, BAPTA 100 μM 3 h, genistein 10 μM, PP2, PP3 30 μM)","ED50, NMDA receptor-mediated inward currents (NMDA receptor-expressing Xenopus oocytes) [µg/mL]"
Cc1noc(-c2ccc(CSCCC(=O)O)cc2)c1NC(=O)OC(C)c1ccccc1Cl (stereo not drawn) [Kil6425],had no influences on NMDA-NMDA receptor activation,blocked gintonin-induced NMDA receptor activation,–
B1,–,–,0.49 ± 0.10
